Laboratory results as given in PMC5509375, “Oxidative stress induced in E. coli by the human antimicrobial peptide LL-37” (PLoS Pathogens, 2017).
In brackets after ≈: the same amount, converted by molar mass. Like-named read-outs stand apart in the source and are kept apart here. Ends that are not written are not given here.

Tests used:
E. coli MG1655 [1] = test: MIC assay, broth microdilution, aerobic growth; type: cell-based; conditions: E. coli MG1655, EZRDM, 30°C, 6 hr, two-fold serial dilutions, reproducible to the same factor of two
Description: (§1) We have measured MICs in aerobic and anaerobic fermentation conditions using a series of two-fold dilutions for the four natural AMPs in the same rich, chemically defined EZRDM medium at 30°C (Table 1). The MIC in anaerobic fermentation conditions is 4-fold higher for LL-37 and 8-fold higher for melittin. […] For cecropin A and for indolicidin, the MIC is the same in aerobic and fermentation conditions. Evidently the activity against E. coli of some, but not all, natural AMPs is enhanced by the presence of oxygen. For LL-37, the primary focus of this study, we also measured the MIC in conditions enabling anaerobic respiration (no oxygen, but supplemented with 10 mM KNO3; Table 2).
The aerobic MIC values for the various AMPs (Table 1) were determined using the broth microdilution method as previously described. Two-fold serial dilutions of LL-37 in 1× EZRDM were performed in separate rows of a polystyrene 96-well plate, with each plate containing an inoculum of E. coli MG1655. The inoculum was a 1:20 dilution from a bulk culture at midlog phase (OD600 = 0.5) grown at 30°C. The plate was incubated at 30°C and shaken at 200 rpm in a Lab-Line Orbital Environ Shaker (model 3527) for 6 hr. The MIC value was taken as the lowest concentration for which no growth was discernible (<0.05 OD) after 6 hr.

E. coli MG1655 [2] = test: MIC assay, anaerobic fermentation (oxygen scavenged with PCA/PCD); type: cell-based; conditions: E. coli MG1655, EZRDM, 30°C, 6 hr, PCA 10 mM / PCD 100 nM
Description: as §1
Anaerobic MIC values (Table 1) were measured on a 96-well plate that was sealed with plastic wrap. Cells were incubated in EZRDM containing protocatechuic acid (PCA) at 10 mM and protocatechuate 3,4-dioxygenase (PCD) at 100 nM to scavenge oxygen. The plate was incubated at 30°C for 6 hr, followed by OD measurements.

E. coli MG1655 [3] = test system: E. coli MG1655; set-up: method as in 2 sources, one per row (each row's own in cited_ref): ref 20 = [20]; PMID 25561551; doi:10.1073/pnas.1417703112; 20 Choi H , Yang Z , Weisshaar JC . Single-cell, real-time detection of oxidative stress induced in Escherichia coli by the antimicrobial peptide CM15 . Proc Natl Acad Sci U S A . 2015; 112 ( 3 ): E3 ||| ref 22 = [22]; PMID 26493221; doi:10.1021/acschembio.5b00547; 22 Choi H , Chakraborty S , Liu R , Gellman SH , Weisshaar JC . Single-Cell, Time-Resolved Antimicrobial Effects of a Highly Cationic, Random Nylon-3 Copolymer on Live Escherichia coli . ACS Chem Biol; conditions: cited from earlier work
E. coli MG1655 [4] = conditions: cited from earlier work
Description: Table 1 Antimicrobial peptides and their MICs for E. coli MG1655 in aerobic growth vs anaerobic fermentation in EZRDM at 30°C. | column: MIC (μM) ^1 / Aerobic || Additional evidence that the onset of strong CellROX* fluorescence coincides with entry of LL-37 into the periplasm comes from two-color imaging experiments using CellROX Green and a red fluorescent variant of the peptide, Rh-LL-37. […] Under aerobic growth conditions, at t = 0 we flowed 25 μM CellROX Green plus 8 μM Rh-LL-37 across plated E. coli cells. As before, wea ... || To test for the importance of LL-37 stereochemistry on the magnitude of oxidative effects, we repeated the CellROX* assay in aerobic conditions using 4 μM of the all-D stereoisomer of LL-37. […] In addition, our earlier work found the same MIC for D- and L-LL-37 [19].

MG1655 E. coli = type: cell-based; conditions: 8 μM Rh-LL-37 + 25 μM CellROX Green, aerobic, 59 cells from three repeats

In the case of `CC[C@H](C)[C@H](N)C(=O)N[C@@H](CC(C)C)C(=O)N1CCC[C@H]1C(=O)N[C@@H](Cc1c[nH]c2ccccc12)C(=O)N[C@@H](CCCCN)C(=O)N[C@@H](Cc1c[nH]c2ccccc12)C(=O)N1CCC[C@H]1C(=O)N[C@@H](Cc1c[nH]c2ccccc12)C(=O)N[C@@H](Cc1c[nH]c2ccccc12)C(=O)N1CCC[C@H]1C(=O)N[C@@H](Cc1c[nH]c2ccccc12)C(=O)N[C@@H](CCCNC(=N)N)C(=O)N[C@@H](CCCNC(=N)N)C(N)=O` [Indolicidin], the “MIC (μM) Aerobic” value (E. coli MG1655 [1]) is reported as 32 µM (≈ 61 µg/mL) and the “MIC (μM) Fermentation” value (E. coli MG1655 [2]) is reported as 32 µM (≈ 61 µg/mL).

For CM15, the “MIC (μM) Fermentation” value (E. coli MG1655 [3]; E. coli MG1655, EZRDM, 30°C, anaerobic fermentation, CM15 from earlier study) is given as 100 µM, the “MIC in anaerobic (fermentation) relative to aerobic growth” value (E. coli MG1655 [3]; E. coli, fold higher in anaerobic) is given as 20 fold and the “MIC (μM) Aerobic” value (E. coli MG1655 [4]; E. coli MG1655, EZRDM, 30°C, aerobic, CM15 from earlier study) is given as 5 µM.

For “KWKLFKKIEKVGQNIRDGIIKAGPAVAVVGQATQIAK-NH2 [Cecropin A]”, the “MIC (μM) Aerobic” value (E. coli MG1655 [1]) was 0.9 µM and the “MIC (μM) Fermentation” value (E. coli MG1655 [2]) was 0.9 µM.

In the case of Rhodamine B-LL-37 [Rh-LL-37], the “Timing of CellROX* fluorescence relative to periplasmic Rh-LL-37 fluorescence” value (MG1655 E. coli) is listed as “rise on the same time scale” and the “MIC compared with unlabeled L-LL-37” value (E. coli MG1655 [4]; MG1655 E. coli) is listed as “the same MIC”.
